# Results from patent US9067871B2, “Aminotetraline derivatives, pharmaceutical compositions containing them, and their use in therapy” (ABBVIE DEUTSCHLAND GMBH & CO KG, priority 2009, dated 2015).
# Where a name gives a salt, the structure may show the parent alone.
# Biological target: human GlyT1c transporter (Homo sapiens (Human), UniProt P48067)
# Test: Radioligand binding assay using recombinant CHO cell membranes expressing human GlyT1
# Settings: human GlyT1c-expressing CHO cell membranes; read-out: radioligand binding Kiapp
# Text: 2. Radioligand binding assays using recombinant CHO cell membranes expressing human GlyT1: […]
# human GlyT1c transporter, sequence (P48067 whole entry): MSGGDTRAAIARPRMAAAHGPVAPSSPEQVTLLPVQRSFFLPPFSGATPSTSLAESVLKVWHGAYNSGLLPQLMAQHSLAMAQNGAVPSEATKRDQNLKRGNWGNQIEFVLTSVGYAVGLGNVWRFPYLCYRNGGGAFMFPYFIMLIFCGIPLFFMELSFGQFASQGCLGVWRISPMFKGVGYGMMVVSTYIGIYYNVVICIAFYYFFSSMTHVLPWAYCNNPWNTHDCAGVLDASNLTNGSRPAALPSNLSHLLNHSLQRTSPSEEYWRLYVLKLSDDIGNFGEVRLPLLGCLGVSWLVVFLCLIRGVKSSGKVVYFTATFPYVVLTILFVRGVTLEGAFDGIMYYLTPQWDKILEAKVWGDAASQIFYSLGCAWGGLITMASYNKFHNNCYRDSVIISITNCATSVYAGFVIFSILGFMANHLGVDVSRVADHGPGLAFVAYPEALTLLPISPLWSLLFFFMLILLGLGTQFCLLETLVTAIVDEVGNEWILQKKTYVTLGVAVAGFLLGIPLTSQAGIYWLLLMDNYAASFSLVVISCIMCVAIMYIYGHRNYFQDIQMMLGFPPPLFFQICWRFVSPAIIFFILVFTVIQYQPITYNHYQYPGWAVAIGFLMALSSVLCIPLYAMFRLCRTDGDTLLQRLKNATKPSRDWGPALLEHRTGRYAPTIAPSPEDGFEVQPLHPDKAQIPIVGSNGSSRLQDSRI
row,SMILES,Ki [µM]
1,"NC1CCc2ccc(OCCNS(=O)(=O)C3CC3)cc2C1Cc1ccccc1Cl (centres unmarked) [Example 294, Cyclopropanesulfonic acid {2-[7-amino-8-(2-chloro-benzyl)-5,6,7,8-tetrahydro-naphthalen-2-yloxyl]-ethyl}-amide hydrochloride]",≤ 10
2,"NC1CCc2ccc(CCCNS(=O)(=O)CC3CC3)cc2C1Cc1ccccc1Cl (centres unmarked) [Example 212, N-{3-[7-Amino-8-(2-chloro-benzyl)-5,6,7,8-tetrahydro-naphthalen-2-yl]-propyl}-C-cyclopropyl-methanesulfonamide hydrochloride]",≤ 1
3,"CCOCCS(=O)(=O)NCCOc1ccc2c(c1)C(Cc1ccc(Cl)c(Cl)c1)C(N)CC2 (centres unmarked) [Example 93, 2-Ethoxy-ethanesulfonic acid {2-[7-amino-8-(3,4-dichloro-benzyl)-5,6,7,8-tetrahydronaphthalen-2-yloxy]-ethyl}-amide hydrochloride]",≤ 1
4,"CCOC(=O)NC1CCc2ccc(OCCNS(=O)(=O)CC3CC3)cc2C1Cc1cccc(Cl)c1 (centres unmarked) [Example 287, [1-(3-Chloro-benzyl)-7-(2-cyclopropylmethanesulfonylamino-ethoxy)-1,2,3,4-tetrahydronaphthalen-2-yl]-carbamic acid ethyl ester]",≤ 10
5,"CCOC(=O)NC1CCc2ccc(OCCNS(=O)(=O)c3ccn(C)c3)cc2C1Cc1cc(F)cc(F)c1 (centres unmarked) [Example 236, Ethyl[1-(3,5-difluorobenzyl)-7-(2-{[(1-methyl-1H-pyrrol-3-yl)sulfonyl]amino}ethoxy)-1,2,3,4-tetrahydronaphthalen-2-yl]carbamate]",≤ 1
6,"CN(CCCc1ccc2c(c1)C(Cc1cccc(F)c1)C(N)CC2)S(=O)(=O)CC1CC1 (centres unmarked) [Example 230, N-{3-[7-Amino-8-(3-fluorobenzyl)-5,6,7,8-tetrahydronaphthalen-2-yl]propyl}-1-cyclopropylN-methylmethanesulfonamide hydrochloride]",≤ 0.01
7,"CCCS(=O)(=O)N(CCOc1ccc2c(c1)C(Cc1ccccc1)C(N)CC2)C1CC1 (centres unmarked) [Example 282, Propane-1-sulfonic acid [2-(7-amino-8-benzyl-5,6,7,8-tetrahydro-naphthalen-2-yloxy)ethyl]-cyclopropyl-amide hydrochloride]",≤ 0.1
8,"CNC1CCc2ccc(OCCNS(=O)(=O)CC3CC3)cc2C1Cc1cccc(F)c1 (single isomer, unassigned; enantiomer 2) [Example 239, Enantiomer 2 of C-cyclopropyl-N-{2-[8-(3-fluoro-benzyl)-7-methylamino-5,6,7,8-tetrahydronaphthalen-2-yloxy]-ethyl}-methanesulfonamide hydrochloride]",≤ 1
9,"CCCCCS(=O)(=O)NCCOc1ccc2c(c1)C(Cc1ccc(Cl)c(Cl)c1)C(N)CC2 (centres unmarked) [Example 114, N-(2-(7-Amino-8-(3,4-dichlorobenzyl)-5,6,7,8-tetrahydronaphthalen-2-yloxy)ethyl)pentane-1-sulfonamide hydrochloride]",≤ 1
10,"CCCS(=O)(=O)NCCc1ccc2c(c1)C(Cc1cccc(Cl)c1)C(NC)CC2 (centres unmarked) [Example 309, Propane-1-sulfonic acid {2-[8-(3-chloro-benzyl)-7-methylamino-5,6,7,8-tetrahydronaphthalen-2-yl]-ethyl}-amide]",≤ 0.1
11,"CCCS(=O)(=O)NCCCc1ccc2c(c1)C(Cc1ccc(Cl)c(Cl)c1)C(NC(C)C)CC2 (centres unmarked) [Example 272, N-{3-[8-(3,4-Dichlorobenzyl)-7-(propan-2-ylamino)-5,6,7,8-tetrahydronaphthalen-2-yl]propyl}propane-1-sulfonamide]",≤ 0.1
12,"CCCS(=O)(=O)NCCCc1ccc2c(c1)C(Cc1ccc(F)cc1)C(NC(C)=O)CC2 (centres unmarked) [Example 215, N-[1-(4-Fluorobenzyl)-7-{3-[(propylsulfonyl)amino]propyl}-1,2,3,4-tetrahydronaphthalen-2-yl]acetamide]",≤ 10
13,"NC1CCc2ccc(OCCNS(=O)(=O)CC3CC3)cc2C1Cc1cc(F)cc(Cl)c1 (centres unmarked) [Example 150, N-(2-{[7-Amino-8-(3-chloro-5-fluorobenzyl)-5,6,7,8-tetrahydronaphthalen-2-yl]oxy}ethyl)-1-cyclopropylmethanesulfonamide hydrochloride]",≤ 0.01
14,"CCCS(=O)(=O)NCCOc1ccc2c(c1)C(Cc1ccc(F)c(Cl)c1)C(N)CC2 (centres unmarked) [Example 120, N-(2-{[7-Amino-8-(3-chloro-4-fluorobenzyl)-5,6,7,8-tetrahydronaphthalen-2-yl]oxy}ethyl)propane-1-sulfonamide hydrochloride]",≤ 0.1
15,"CCCS(=O)(=O)NCCCc1ccc2c(c1)C(Cc1ccc(Cl)cc1)C(N)CC2 (centres unmarked) [Example 201, N-{3-[7-Amino-8-(4-chlorobenzyl)-5,6,7,8-tetrahydronaphthalen-2-yl]propyl}propane-1-sulfonamide hydrochloride]",≤ 0.1
16,"NC1CCc2ccc(CCCNS(=O)(=O)CC3CC3)cc2C1Cc1ccc(F)cc1 (centres unmarked) [Example 208, N-{3-[7-Amino-8-(4-fluorobenzyl)-5,6,7,8-tetrahydronaphthalen-2-yl]propyl}-1-cyclopropylmethanesulfonamide hydrochloride]",≤ 0.1

row,SMILES,Ki [µM]
1,"CN(CCOc1ccc2c(c1)C(Cc1ccccc1)C(N)CC2)S(=O)(=O)c1cn(C)cn1 (centres unmarked) [Example 98, 1-Methyl-1H-imidazole-4-sulfonic acid [2-(7-amino-8-benzyl-5,6,7,8-tetrahydronaphthalen-2-yloxy)-ethyl]-methyl-amide hydrochloride]",≤ 1
2,"NC1CCc2ccc(CCNS(=O)(=O)CC3CC3)cc2C1Cc1cccc(Cl)c1 (centres unmarked) [Example 310, N-{2-[7-Amino-8-(3-chloro-benzyl)-5,6,7,8-tetrahydro-naphthalen-2-yl]-ethyl}-C-cyclopropyl-methanesulfonamide hydrochloride]",≤ 1
3,"CCNC1CCc2ccc(CNS(=O)(=O)c3cn(C)cn3)cc2C1Cc1ccc(F)cc1 (centres unmarked) [Example 199, 1-Methyl-1H-imidazole-4-sulfonic acid [7-ethylamino-8-(4-fluoro-benzyl)-5,6,7,8-tetrahydro-naphthalen-2-ylmethyl]-amide hydrochloride]",≤ 0.1
4,"O=S(=O)(CC1CC1)NCCCc1ccc2c(c1)C(Cc1ccccc1)C(N1CCCC1)CC2 (centres unmarked) [Example 266, N-{3-[8-Benzyl-7-(pyrrolidin-1-yl)-5,6,7,8-tetrahydronaphthalen-2-yl]propyl}-1-cyclopropylmethanesulfonamide hydrochloride]",≤ 1
5,"NC1CCc2ccc(OCCNS(=O)(=O)CC3CC3)cc2C1Cc1ccccc1Cl (centres unmarked) [Example 295, N-{2-[7-Amino-8-(2-chloro-benzyl)-5,6,7,8-tetrahydro-naphthalen-2-yloxy]-ethyl}-C-cyclopropyl-methanesulfonamide hydrochloride]",≤ 1
6,"CCCCS(=O)(=O)NCCOc1ccc2c(c1)C(Cc1ccc(Cl)c(Cl)c1)C(N)CC2 (centres unmarked) [Example 90, Butane-1-sulfonic acid {2-[7-amino-8-(3,4-dichloro-benzyl)-5,6,7,8-tetrahydro-naphthalen-2-yloxy]-ethyl}-amide hydrochloride]",≤ 1
7,"Cn1cnc(S(=O)(=O)NCCOc2ccc3c(c2)C(Cc2cccc(F)c2)C(N2CCCC2)CC3)c1 (centres unmarked) [Example 140, N-(2-{[8-(3-Fluorobenzyl)-7-(pyrrolidin-1-yl)-5,6,7,8-tetrahydronaphthalen-2-yl]oxy}ethyl)-1-methyl-1H-imidazole-4-sulfonamide hydrochloride]",≤ 0.01
8,"CC(=O)NC1CCc2ccc(OCCNS(=O)(=O)CC3CC3)cc2C1Cc1cccc(Cl)c1 (centres unmarked) [Example 306, N-[1-(3-Chloro-benzyl)-7-(2-cyclopropylmethanesulfonylamino-ethoxy)-1,2,3,4-tetrahydronaphthalen-2-yl]-acetamide]",≤ 0.1
9,"NC1CCc2ccc(CCCNS(=O)(=O)CC3CC3)cc2C1Cc1ccc(Cl)cc1 (centres unmarked) [Example 202, N-{3-[7-Amino-8-(4-chlorobenzyl)-5,6,7,8-tetrahydronaphthalen-2-yl]propyl}-1-cyclopropylmethanesulfonamide hydrochloride]",≤ 0.1
10,"CCCS(=O)(=O)NCCOc1ccc2c(c1)C(Cc1ccccc1)C(N1CCC1)CC2 (centres unmarked) [Example 148, Propane-1-sulfonic acid [2-(7-azetidin-1-yl-8-benzyl-5,6,7,8-tetrahydro-naphthalen-2-yloxy)-ethyl]-amide]",≤ 0.1
11,"Cn1cc(S(=O)(=O)NCc2ccc3c(c2)C(Cc2ccccc2)C(N2CCC2)CC3)cn1 (centres unmarked) [Example 250, N-{[7-(Azetidin-1-yl)-8-benzyl-5,6,7,8-tetrahydronaphthalen-2-yl]methyl}-1-methyl-1H-pyrazole-4-sulfonamide]",≤ 0.01
12,"O=S(=O)(CC1CC1)NCCOc1ccc2c(c1)C(Cc1cccc(F)c1)C(N1CCCC1)CC2 (centres unmarked) [Example 138, 1-Cyclopropyl-N-(2-{[8-(3-fluorobenzyl)-7-(pyrrolidin-1-yl)-5,6,7,8-tetrahydronaphthalen-2-yl]oxy}ethyl)methanesulfonamide hydrochloride]",≤ 0.01
13,"CCCS(=O)(=O)N(C)CCCc1ccc2c(c1)C(Cc1ccc(F)cc1)C(N)CC2 (centres unmarked) [Example 232, N-{3-[7-Amino-8-(4-fluorobenzyl)-5,6,7,8-tetrahydronaphthalen-2-yl]propyl}-N-methylpropane-1-sulfonamide hydrochloride]",≤ 0.1
14,"NC1CCc2ccc(OCCNS(=O)(=O)CC3CC3)cc2C1Cc1ccc(Cl)cc1 (centres unmarked) [Example 128, N-(2-{[7-Amino-8-(4-chlorobenzyl)-5,6,7,8-tetrahydronaphthalen-2-yl]oxy}ethyl)-1-cyclopropylmethanesulfonamide hydrochloride]",≤ 0.1
15,"CC(=O)NC1CCc2ccc(CCCNS(=O)(=O)CC3CC3)cc2C1Cc1cccc(F)c1 (centres unmarked) [Example 218, N-[7-(3-{[(Cyclopropylmethyl)sulfonyl]amino}propyl)-1-(3-fluorobenzyl)-1,2,3,4-tetrahydronaphthalen-2-yl]acetamide]",≤ 10
16,"O=S(=O)(CC1CC1)NCCOc1ccc2c(c1)C(Cc1cccc(F)c1)C(N1CCC1)CC2 (centres unmarked) [Example 139, N-(2-{[7-(Azetidin-1-yl)-8-(3-fluorobenzyl)-5,6,7,8-tetrahydronaphthalen-2-yl]oxy}ethyl)-1-cyclopropylmethanesulfonamide hydrochloride]",≤ 0.01
